# Measurements as given in patent publication US6391568B1, “Method for determining platelet reactivity in a whole blood sample” (Lionheart Technologies, Inc., priority 1998, dated 2002).
# Test system: platelets (surface glycoprotein IIb-IIIa)
# Test: Inhibition of fibrinogen*FITC binding to ADP-activated platelets in whole blood spiked with ReoPro (microtitration well capture)
# Type: cell-based
# Conditions: whole blood (CTI 32 μg/ml) pretreated with ReoPro 3 μg/ml; ADP 0, 0.4, 0.8 μM; FIG. 3
# Source text: The concentration of ReoPro used is that known to inhibit the aggregation of platelets as determined with the use of aggregometry.
substance,measurement,value
ReoPro: antiplatelet drug that inhibits binding of fibrinogen to the activated conformer of surface glycoprotein IIb-IIIa,binding of fibrinogen*FITC to platelets (ratio of fibrinogen*FITC signal to CD42*PerCP signal),inhibits
